Measured values reported in the NIST ThermoML archive (doi:10.1016/j.tca.2007.07.002).
Numbers after ± are expanded uncertainties.

Assay: mn = molality of the nth substance listed, in mol/kg
Conditions: 298.15 K, 101 kPa, Liquid, Vibrating tube method

Compound: CCCC(N)=O [butanamide] + O
- mass density (m1 = 0.2015): 997.019 ± 0.046 kg/m3
- mass density (m1 = 0.3122): 997.028 ± 0.047 kg/m3
- mass density (m1 = 0.4106): 997.052 ± 0.047 kg/m3
- mass density (m1 = 0.5053): 997.083 ± 0.048 kg/m3
- mass density (m1 = 0.628): 997.117 ± 0.048 kg/m3
- mass density (m1 = 0.7131): 997.16 ± 0.049 kg/m3
- mass density (m1 = 0.827): 997.21 ± 0.049 kg/m3
- mass density (m1 = 0.9204): 997.269 ± 0.05 kg/m3
